Data reported in US11026972B2, “Methods for generating macrophages with enhanced cancer phagocytosis” (Georgia State University Research Foundation, Inc., priority 2016, dated 2021).

How the values were obtained:
Assay type in all cases: cell-based, mouse
SIRPα = SIRPα immunoprecipitation and WB detection of SIRPα ITIM phosphorylation and SHP-1 association; conditions: PMA treatment
Method: FIGS. 4A-4E include data related to our experiments on macrophage phagocytic plasticity. FIG. 4A is a panel of illustrative line graphs showing that IL-10 inhibits macrophage phagocytosis toward “self.” PEMs were treated with LPS and activating cytokines along with various concentrations of IL-10 before testing their ability to phagocytose RBCs. FIG. 4B illustrates the phagocytic plasticity of WT red pulp macrophages. […] Treatments of cultured macrophages with LPS and IL-17 re-elicited their phagocytosis toward RBCs. […] Error bars are ±SEM. ***P<0.001 vs. freshly isolated splenic macrophages. FIG. 4D includes microscopic images of RBC phagocytosis by LPS- and IL-17-treated splenic macrophages. […] WT PEMs treated with LPS or IL-17 were further treated with Cd47^+ RBCs or Cd47-AP (10 min, 37° C.) followed by cell lysis, SIRPα immunoprecipitation, and WB detection of SIRPα phosphorylation (SIRPα^pY) and SHP-1 association. Data presented in each panel represent at least three independent experiments with n≥4, if applicable.
FIGS. 5A-5H include data related to our experiments on the role of Syk in phagocytic activation. […] PEMs were treated with LPS and cytokines in the presence of various inhibitors. After washing, inhibitor-free macrophages were tested for phagocytosis toward RBCs. […] PEMs treated with LPS and activating cytokines, or together with IL-10, were tested for total Syk and phosphorylated Syk (Syk^pY, specific at Y519/520). FIG. 5D describes PMA-induced macrophages phagocytosis toward RBCs. WT and SIRPα^−/− PEMs were treated with PMA (37° C., 30 min) before testing phagocytosis toward RBCs. FIG. 5E is a schematic depiction of PKC-Syk-mediated macrophage phagocytic activation toward self. […] Left: Inhibition of Syk by piceatannol and R406 prevented PMA-induced phagocytic activation. […] Error bars are ±SEM. ***P<0.001 vs. the respective controls. […] LPS-treated WT PEMs were further briefly treated with pervanadate before testing for phagocytosis toward RBCs. Error bars are ±SEM. ***P<0.001 vs. the respective controls. […]

[1] = test system: cell surface LRP1 and CRT on PEMs; assay: Macrophage cell surface CRT and LRP1 by FACS; conditions: after PMA treatment
Method: FIGS. 6A-6D include data related to our investigation of possible phagocytic receptors on macrophages for phagocytosing healthy self-cells. […] PEM (unstimulated) phagocytosis toward apoptotic B16 cells was tested in the presence of same antibodies and RAP as in A. Error bars are ±SEM. ***P<0.001 vs. phagocytosis in the presence of control IgG. […] PEMs, with or without (ctl.) treatment with LPS, IL-17, IL-6, or PMA, were labeled for cell surface LRP1 and CRT followed by FACS. Increased and decreased expressions were marked by arrows. […] Activated PEM phagocytosis toward RBCs was tested in the presence of antibodies against SR-A, Fc receptor Cd16/32 (10 μg/mL of each), inhibitors against SR-B (BLT1, 5 μM), dectin (laminarin, 100 μg/mL), complement (heparin, 40 U/mL), and antibody against Cd11b (10 μg/mL). Error bars are ±SEM. ***P<0.001 vs. the respective control without inhibition. Data presented in each panel represent at least three independent experiments with n≥4, if applicable.

[2] = test system: splenic macrophages, PEMs and BMDMs; assay: Ex vivo macrophage phagocytosis toward RBCs and other self-cells after activation
Method in brief: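 Mouse splenic or peritoneal macrophages (2 h adherent selection) or BMDMs (M-CSF ~10 ng/ml, 5-6 days) were co-incubated 30 min at 37 °C with CFSE-labelled RBCs (1:5-10) or other cells (1:1-2). Uptake was scored by fluorescence microscopy and/or FACS with anti-F4/80 or anti-CD11b macrophage labelling.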

PEMs [3] = assay: Cell signaling inhibitors on LPS/cytokine- or PMA-induced PEM phagocytic activation toward RBCs; conditions: PMA treatment
Method: FIGS. 5A-5H include data related to our experiments on the role of Syk in phagocytic activation. […] PEMs were treated with LPS and cytokines in the presence of various inhibitors. After washing, inhibitor-free macrophages were tested for phagocytosis toward RBCs. […] PEMs treated with LPS and activating cytokines, or together with IL-10, were tested for total Syk and phosphorylated Syk (Syk^pY, specific at Y519/520). FIG. 5D describes PMA-induced macrophages phagocytosis toward RBCs. WT and SIRPα^−/− PEMs were treated with PMA (37° C., 30 min) before testing phagocytosis toward RBCs. FIG. 5E is a schematic depiction of PKC-Syk-mediated macrophage phagocytic activation toward self. […] Left: Inhibition of Syk by piceatannol and R406 prevented PMA-induced phagocytic activation. […] Error bars are ±SEM. ***P<0.001 vs. the respective controls. […] LPS-treated WT PEMs were further briefly treated with pervanadate before testing for phagocytosis toward RBCs. Error bars are ±SEM. ***P<0.001 vs. the respective controls. […] Data presented in each panel represent at least three independent experiments with n≥4, if applicable.
(§1) Ex vivo macrophage phagocytosis: Mouse spleens were harvested and minced in cold HBSS followed by passing through nylon meshes. The spleen cells in suspensions were collected by centrifugation followed by washing. After lysis of RBC, splenocytes were plated in cell culture dishes in DMEM with 10% FBS and cultured for 2 h followed by removal of non-adherent cells. The adherent cells, ˜70% being macrophages as determined by anti-F4/80 staining, were tested for phagocytosis. For phagocytosis of RBC or other tissue cells, targeted cells were labeled with CFSE prior to addition into the macrophage-containing wells. Macrophages and target cells, at a ratio of 1:5-10 for RBC or 1:1-2 for other cells, were co-incubated for 30 min at 37° C. followed by gently washing. Macrophage phagocytosis of target cells was then analyzed by fluorescence microscopy and/or by FACS. […] Alternatively, the freshly isolated splenocytes in suspension were incubated with CFSE-labeled RBC and other phagocytic targets for 30 min at 37° C. Macrophage phagocytosis was then determined by FACS after labeling macrophages with anti-F4/80. To test phagocytosis of apoptotic cells, B16 cells were irradiated by UV for 150 seconds at 50 J/m^2 strength. Apoptosis was analyzed at 2, 4, 6, 8 and 18 h post UV irradiation by labeling of the cells with anti-phosphatidylserine (PS) antibody (data not shown) or FITC-conjugated annexin V (data not shown). Cells that were confirmed to be apoptotic were trypsinized, labeled with CFSE, and then co-incubated with macrophages for 30 min at 37° C. After gentle washing, phagocytosis was analyzed by fluorescence microscopy and/or FACS. To test phagocytosis of bacteria and the fungal product zymosan, AlexaFluor-conjugated E.coli strain […] (2 μl suspension, ˜2 μg) or zymosan bioparticles (1 μl suspension, ˜2 μg) (both from Invitrogen) were incubated with macrophages for 30 min followed by washing and analyses. Similar procedures were performed to test phagocytosis of macrophages from various sources. To obtain peritoneal macrophages, peritonea of mice were lavaged by sterile PBS followed by centrifugation to collect cells. Cells suspended in DMEM with 10% FBS were then plated in cell culture dishes and incubated for 2 h at 37° C. followed by removal of non-adherent cells. To produce bone marrow-derived macrophages, freshly isolated bone marrow cells were culture in macrophage colony-stimulating factor (MCSF, ˜10 ng/ml)-containing MEM with 10% FBS for five-six days and macrophage differentiation was confirmed by anti-F4/80 staining.

PEMs [4] = assay: PEM (unstimulated) phagocytosis toward apoptotic B16 cells; conditions: same antibodies and RAP as for RBCs
Method: (§2) FIGS. 6A-6D include data related to our investigation of possible phagocytic receptors on macrophages for phagocytosing healthy self-cells. […] PEMs, with or without (ctl.) treatment with LPS, IL-17, IL-6, or PMA, were labeled for cell surface LRP1 and CRT followed by FACS. […] Activated PEM phagocytosis toward RBCs was tested in the presence of antibodies against SR-A, Fc receptor Cd16/32 (10 μg/mL of each), inhibitors against SR-B (BLT1, 5 μM), dectin (laminarin, 100 μg/mL), complement (heparin, 40 U/mL), and antibody against Cd11b (10 μg/mL). […] Data presented in each panel represent at least three independent experiments with n≥4, if applicable.
Ex vivo macrophage phagocytosis: Mouse spleens were harvested and minced in cold HBSS followed by passing through nylon meshes. […] The adherent cells, ˜70% being macrophages as determined by anti-F4/80 staining, were tested for phagocytosis. […] Macrophage phagocytosis of target cells was then analyzed by fluorescence microscopy and/or by FACS. […] Macrophage phagocytosis was then determined by FACS after labeling macrophages with anti-F4/80. […] Apoptosis was analyzed at 2, 4, 6, 8 and 18 h post UV irradiation by labeling of the cells with anti-phosphatidylserine (PS) antibody (data not shown) or FITC-conjugated annexin V (data not shown). […] After gentle washing, phagocytosis was analyzed by fluorescence microscopy and/or FACS. […]

PEMs [5] = assay: Activated PEM phagocytosis toward RBCs in the presence of antibodies/inhibitors against phagocytic receptors; conditions: anti-CRT 10 μg/mL each; anti-LRP1 20 μg/mL; RAP 20 μg/mL
Method: as §2
as §1, with “To obtain peritoneal macrophages, peritonea of mice were lavaged by sterile PBS followed by centrifugation to collect cells. Cells suspended in DMEM with 10% FBS were then plated in cell culture dishes and incubated for 2 h at 37° C. followed by removal of non-adherent cells. To produce bone marrow-derived macrophages, freshly isolated bone marrow cells were culture in macrophage colony-stimulating factor (MCSF, ˜10 ng/ml)-containing MEM with 10% FBS for five-six days and macrophage differentiation was confirmed by anti-F4/80 staining.” left out

Compound | SIRPα expression, SIRPα ITIM phosphorylation and SHP-1 association (SIRPα) | reduction of CRT and LRP1 expression on PEMs [1] [%] | time to elicitation of phagocytosis [2] [min] | phagocytic target discrimination ([2]; PMA-treated WT PEMs) | PEM phagocytosis toward RBCs ([2]; low nanomolar concentrations, 37° C., 30 min) | rescue of Syk inhibition-repressed PEM phagocytic activation by LPS (PEMs [3]) | phagocytosis toward apoptotic cells (PEMs [4]) | LPS/cytokine-induced PEM phagocytosis toward RBCs (PEMs [5])
CCCCCCCCCCCCCC(=O)O[C@@H]1[C@@H](C)[C@@]2(O)[C@@H](C=C(CO)C[C@]3(O)C(=O)C(C)=C[C@@H]23)[C@@H]2C(C)(C)[C@]12OC(C)=O [PMA, phorbol 12-myristate 13-acetate] | neither reduced SIRPα expression nor affected SIRPα ITIM phosphorylation and SHP-1 association | ~50 | < 30 | aggressively phagocytosed both CD47^− and CD47^+ RBCs | instantly initiated PEM to phagocytose RBCs | failed to rescue |  | 
RAP: LRP1 receptor-associated protein, which inhibits CRT-LRP1 binding |  |  |  |  |  |  | significantly inhibited | failed to inhibit
